Source: patent US12595269B2, “Morpholine-like monoamine releasers” (Solvonis Therapeutics Ireland Holdings Limited, priority 2022, dated 2026)
Read-outs that look alike come from different tables or passages of the source.

Columns and labels:
CYP2C8 = biological target: T1, CYP2C8 (Homo sapiens, UniProt P10632); experiment: CYP450 inhibition, CYP2C8 Baculosomes, Vivid DBOMF substrate; format: in vitro ADME
T1 construct: purchased Life Technologies PV6138; host or cells: Baculosomes
T1 sequence (P10632 1-490): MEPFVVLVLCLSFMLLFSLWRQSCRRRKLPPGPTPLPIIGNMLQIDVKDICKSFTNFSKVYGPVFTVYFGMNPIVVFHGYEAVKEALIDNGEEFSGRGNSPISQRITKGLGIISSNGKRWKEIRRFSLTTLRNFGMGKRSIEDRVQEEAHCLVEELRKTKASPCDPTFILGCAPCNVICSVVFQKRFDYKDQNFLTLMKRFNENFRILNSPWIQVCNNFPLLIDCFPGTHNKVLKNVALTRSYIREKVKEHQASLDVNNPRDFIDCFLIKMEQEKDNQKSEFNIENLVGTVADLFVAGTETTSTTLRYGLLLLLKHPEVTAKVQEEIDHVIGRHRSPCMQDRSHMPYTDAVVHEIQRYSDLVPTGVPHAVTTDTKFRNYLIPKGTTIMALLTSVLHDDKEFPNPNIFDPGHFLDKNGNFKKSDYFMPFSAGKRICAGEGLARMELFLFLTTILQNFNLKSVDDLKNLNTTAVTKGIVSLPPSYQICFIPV
Method: (§1) Methods and Procedure: The study was performed in agreement with previously described procedures to assure data integrity and adherence to GLP standards. Briefly, recombinant human CYP450 isoenzymes were used to metabolize pro-fluorescent probe substrates to fluorescent products. IC50 values determined from the effect of test compounds on the metabolism of these probe substrates were then used to determine inhibitory potency against CYP450 isoforms.
The test system was based on a three-step procedure with a “mix and read” format, where PGP-432,TI reaction and reading were performed at 37° C. […] Fluorescence was measured in kinetic mode (1 read/minutes for 10 minutes), and the fluorescence rate was calculated. […]
Next, 10 μL/well from the compound plate was added and incubated for 10 minutes at 37° C. on a plate shaker, while a mixture of Vivid Substrate and Vivid NADP+ in Vivid CYP450 Reaction Buffer was prepared. The reaction was initiated by adding 10 μL/well of the Vivid Substrate and NADP+ mixture, before transferring the plate into the fluorescent plate reader (immediately, within 2 minutes), and fluorescence was monitored every minute for 10 minutes according to the specific protocol. Regarding data analysis, the inhibition effect is expressed as a percentage. […]

CYP3A4 = biological target: T2, CYP3A4 (Homo sapiens, UniProt P08684); experiment: CYP450 inhibition, fluorescent probes 7BQ and DBOMF: CYP3A4; format: in vitro ADME; conditions: for IC50 at 10 min: human
T2 construct: purchased Life Technologies P2377; host or cells: Baculosomes
T2 sequence (P08684 whole entry): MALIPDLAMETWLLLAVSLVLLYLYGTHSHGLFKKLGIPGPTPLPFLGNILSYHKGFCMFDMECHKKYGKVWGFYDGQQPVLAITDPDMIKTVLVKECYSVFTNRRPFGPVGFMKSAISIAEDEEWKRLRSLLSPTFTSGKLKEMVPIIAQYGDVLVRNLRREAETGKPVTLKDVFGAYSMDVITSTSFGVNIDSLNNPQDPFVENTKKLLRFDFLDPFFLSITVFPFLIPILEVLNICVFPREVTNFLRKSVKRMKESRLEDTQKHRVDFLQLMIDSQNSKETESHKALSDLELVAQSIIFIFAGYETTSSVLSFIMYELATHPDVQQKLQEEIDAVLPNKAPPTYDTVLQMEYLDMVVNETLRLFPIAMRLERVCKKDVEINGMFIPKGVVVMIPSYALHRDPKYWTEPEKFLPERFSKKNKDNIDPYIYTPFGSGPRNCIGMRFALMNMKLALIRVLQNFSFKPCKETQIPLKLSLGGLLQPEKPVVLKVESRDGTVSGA
Method: as §1
The test system was based on a three-step procedure with a “mix and read” format, where PGP-432,TI reaction and reading were performed at 37° C. The assays described herein measure in vitro inhibitory effects (pIC50) of compounds on the human P450 isoforms (1A2, 2B6, 2C8, 2C9, 2C19, 2D6, 3A4) expressed in recombinant microsomes. Pro-fluorescent probe substrates were metabolized to fluorescent products by the enzymes. Fluorescence was measured in kinetic mode (1 read/minutes for 10 minutes), and the fluorescence rate was calculated.
Inhibition of the fluorescent signal resulting from P450 activation indicated inhibitory activity and facilitated calculation of the compound pIC50. […] Concentration response curves (CRCs) of compounds were run on two different test occasions (n=2) by preparing serial dilutions from the dame compound stock solution.
To prepare the compound plate, test compounds serial dilutions 1 to 3 were performed from a 10 mM stock solution in DMSO by Biomek FX to generate 10 point CRC with the highest concentrations in columns 3 and 13.
100% DMSO was placed in columns 1 and 2 and used for assay low controls. CYP inhibitor (10 mM miconazole solution in DMSO) was placed in columns 23 and 24 and served as an assay high controls. 1 μL copy plates were then stamped into V-bottom drug plates at a concentration that is 200 fold the final assay concentration. The copy plates were diluted prior to the experiment with assay buffer to reach 4 times the final assay concentration (2% w/v DMSO).
A reference compound (e.g., miconazole) was included in each compound plate in row A, column 3 and 13. The reference compound was diluted and stamped together with test compounds. The final concentrations of the 10 point CRCs of test compounds in the assay plate were 5.00E-05; 1.67E-05; 5.56E-06; 1.85E-06; 6.17E-07; 2.06E-07; 6.86E-08; 2.29E-08; 7.62E-09 and 2.54E-09, respectively. […]
Microsomes were added to the buffer prior to the substrate addition. […] For fluorescence measurement, 10 μL/well of the test compounds were transferred from the compound plate to the assay plate using Biomek FX and the appropriate protocol. […]
10 μL/well of the cofactor was then added to the assay plate using the Multidrop before placing the assay plate in the plate reader EnVision to measure fluorescence. […]

Structure (SMILES): Clc1ccc(C23CNC(CO2)C3)cc1Cl (stereo not drawn) [522A, 1-(3,4-dichlorophenyl)-2-oxa-5-azabicyclo[2.2.1]heptane]
- IC50 (CYP2C8; recombinant human CYP2C8): > 50 µM
- IC50 (CYP3A4; recombinant human CYP3A4, substrate 7BQ, read-out: CYP450 Inhibition (IC50), CYP3A4 (7BQ)): > 50 µM
- IC50 (CYP3A4; recombinant human CYP3A4, substrate DBOMF, read-out: CYP450 Inhibition (IC50), CYP3A4 (DBOMF)): > 50 µM

Structure (SMILES): CNC(C)Cc1ccc2c(c1)OCO2 (stereo not drawn) [MDMA, reference compound]
- IC50 at 10 min (CYP2C8; human, recombinant CYP2C8 Baculosomes, pH 8, probe Vivid DBOMF): 50 µM
- IC50 at 10 min (CYP3A4; recombinant CYP3A4 Baculosomes, pH 8, probe Vivid DBOMF): 50 µM
- IC50 at 10 min (CYP3A4; recombinant microsomes expressing CYP3A4, probe 7BQ): 50 µM
